# Laboratory results published in patent publication US9999619B2, “Piperidin-4-yl azetidine derivatives as JAK1 inhibitors” (Incyte Corporation, priority 2010, dated 2018).
# What was measured:
# Type in all cases: biochemical
# [1] = target: human JAK1 (a.a. 837-1142) (Homo sapiens, UniProt P23458); assay: In vitro JAK kinase assay (HTRF, phosphorylation of a biotinylated peptide), JAK1; conditions: measured at 1 mM ATP
# Summary of the method: (§1)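 N-terminally His-tagged catalytic domains, baculovirus-expressed in insect cells and purified, were used as enzyme. Reactions ran 1 hr at room temperature and were stopped with a mix of 45 mM EDTA, 300 nM SA-APC and 6 nM Eu-Py20. The HTRF signal was read after 40 min of antibody binding.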
# [2] = target: human JAK1 (a.a. 837-1142); assay: as above; conditions: ratio of JAK2 IC50 to JAK1 IC50, measured at 1 mM ATP
# Summary of the method: as §1
# Jak2 (a.a. 828-1132) = Jak2 (a.a. 828-1132) (Homo sapiens (Human), UniProt O60674); assay: In vitro JAK kinase assay (HTRF, phosphorylation of a biotinylated peptide), JAK2; conditions: measured at 1 mM ATP
# Summary of the method: as §1
# Jak2 (a.a. 828-1132), sequence (O60674 828-1132): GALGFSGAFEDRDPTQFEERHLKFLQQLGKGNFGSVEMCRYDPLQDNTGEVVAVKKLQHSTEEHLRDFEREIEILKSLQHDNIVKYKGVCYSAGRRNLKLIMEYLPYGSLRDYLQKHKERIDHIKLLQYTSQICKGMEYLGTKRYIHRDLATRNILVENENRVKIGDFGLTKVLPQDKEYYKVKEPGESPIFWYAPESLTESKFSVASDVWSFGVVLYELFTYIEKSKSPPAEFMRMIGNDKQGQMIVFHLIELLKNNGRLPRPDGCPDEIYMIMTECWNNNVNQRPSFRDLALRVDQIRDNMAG
Compound,IC50 [1],IC50 Ratio JAK2/JAK1 [2],IC50 (Jak2 (a.a. 828-1132))
"N#CCC1(n2cc(-c3ncnc4[nH]ccc34)cn2)CN(C2CCN(Cc3cccc(Oc4ccccc4)c3)CC2)C1 [Example 233, {1-[1-(3-phenoxybenzyl)piperidin-4-yl]-3-[4-(7H-pyrrolo[2,3-d]pyrimidin-4-yl)-1H-pyrazol-1-yl]azetidin-3-yl}acetonitrile]",20 to 30 nM,2.2,50 to 100 nM
"N#CCC1(n2cc(-c3ncnc4[nH]ccc34)cn2)CN(C2CCN(S(=O)(=O)c3ccccc3C#N)CC2)C1 [Example 247, 2-[(4-{3-(cyanomethyl)-3-[4-(7H-pyrrolo[2,3-d]pyrimidin-4-yl)-1H-pyrazol-1-yl]azetidin-1-yl}piperidin-1-yl)sulfonyl]benzonitrile]",≤ 5 nM,5.1,≤ 10 nM
"N#CCC1(n2cc(-c3ncnc4[nH]ccc34)cn2)CN([C@@H]2CCN(C(=O)c3ccnc(C(F)(F)F)c3F)C[C@@H]2F)C1 (relative stereo) [Example 361, {1-{cis-3-Fluoro-1-[3-fluoro-2-(trifluoromethyl)isonicotinoyl]piperidin-4-yl}-3-[4-(7H-pyrrolo[2,3-d]pyrimidin-4-yl)-1H-pyrazol-1-yl]azetidin-3-yl}acetonitrile]",≤ 5 nM,20.9,50 to 100 nM
"Cc1ccc(NC(=O)N2CCC(N3CC(CC#N)(n4cc(-c5ncnc6[nH]ccc56)cn4)C3)CC2)c(F)n1 [Example 200, 4-{3-(cyanomethyl)-3-[4-(7H-pyrrolo[2,3-d]pyrimidin-4-yl)-1H-pyrazol-1-yl]azetidin-1-yl}-N-(2-fluoro-6-methylpyridin-3-yl)piperidine-1-carboxamide]",≤ 5 nM,6.7,10 to 50 nM
"N#CCC1(n2cc(-c3ncnc4[nH]ccc34)cn2)CN(C2CCN(C(=O)c3sc(C(F)(F)F)cc3O)CC2)C1 [Example 71, {1-{1-[3-hydroxy-5-(trifluoromethyl)-2-thienylcarbonyl]piperidin-4-yl}-3-[4-(7H-pyrrolo[2,3-d]pyrimidin-4-yl)-1H-pyrazol-1-yl]azetidin-3-yl}acetonitrile]",20 to 30 nM,4.4,50 to 100 nM
"Cc1cc(NC(=O)N2CCC(N3CC(CC#N)(n4cc(-c5ncnc6[nH]ccc56)cn4)C3)CC2)n(C)n1 [Example 197, 4-{3-(cyanomethyl)-3-[4-(7H-pyrrolo[2,3-d]pyrimidin-4-yl)-1H-pyrazol-1-yl]azetidin-1-yl}-N-(1,3-dimethyl-1H-pyrazol-5-yl)piperidine-1-carboxamide]",5 to 20 nM,3.2,10 to 50 nM
"N#CCC1(n2cc(-c3ccnc4[nH]ccc34)cn2)CN(C2CCN(C(=O)Nc3ccc(C#N)cc3F)CC2)C1 [Example 312, N-(4-cyano-2-fluorophenyl)-4-{3-(cyanomethyl)-3-[4-(1H-pyrrolo[2,3-b]pyridin-4-yl)-1H-pyrazol-1-yl]azetidin-1-yl}piperidine-1-carboxamide]",5 to 20 nM,5.3,50 to 100 nM
"N#CCC1(n2ccc(-c3ncnc4[nH]ccc34)c2)CN(C2CCN(C(=O)c3ccc(C#N)cc3F)CC2)C1 [Example 264, 4-[(4-{3-(cyanomethyl)-3-[3-(7H-pyrrolo[2,3-d]pyrimidin-4-yl)-1H-pyrrol-1-yl]azetidin-1-yl}piperidin-1-yl)carbonyl]-3-fluorobenzonitrile]",5 to 20 nM,9.5,50 to 100 nM
"N#CCC1(n2cc(-c3ncnc4[nH]ccc34)cn2)CN(C2CCN(C(=O)Nc3ccccc3C(F)(F)F)CC2)C1 [Example 157, 4-{3-(cyanomethyl)-3-[4-(7H-pyrrolo[2,3-d]pyrimidin-4-yl)-1H-pyrazol-1-yl]azetidin-1-yl}-N-[2-(trifluoromethyl)phenyl]piperidine-1-carboxamide]",≤ 5 nM,14.8,50 to 100 nM
"N#CCC1(n2cc(-c3c(C#N)cnc4[nH]ccc34)cn2)CN(C2CCN(C(=O)c3cc(C#N)ccc3C#N)CC2)C1 [Example 337, 2-[(4-{3-(cyanomethyl)-3-[4-(5-cyano-1H-pyrrolo[2,3-b]pyridin-4-yl)-1H-pyrazol-1-yl]azetidin-1-yl}piperidin-1-yl)carbonyl]terephthalonitrile]",5 to 20 nM,6.0,10 to 50 nM
"N#CCC1(n2cc(-c3ncnc4[nH]ccc34)cn2)CN(C2CCN(C(=O)c3ccc(-c4ccc5ncccc5c4)c(F)c3)CC2)C1 [Example 2, {1-[1-(3-Fluoro-4-quinolin-6-ylbenzoyl)piperidin-4-yl]-3-[4-(7H-pyrrolo[2,3-d]pyrimidin-4-yl)-1H-pyrazol-1-yl]azetidin-3-yl}acetonitrile]",≤ 5 nM,12.3,50 to 100 nM

# Next, values leading:
IC50 [1],IC50 Ratio JAK2/JAK1 [2],IC50 (Jak2 (a.a. 828-1132)),Compound
≤ 5 nM,12.0,10 to 50 nM,"N#CCC1(n2cc(-c3ncnc4[nH]ccc34)cn2)CN(C2CCN(C(=O)Nc3ccccc3Cl)CC2)C1 [Example 163, N-(2-chlorophenyl)-4-{3-(cyanomethyl)-3-[4-(7H-pyrrolo[2,3-d]pyrimidin-4-yl)-1H-pyrazol-1-yl]azetidin-1-yl}piperidine-1-carboxamide]"
20 to 30 nM,1.1,10 to 50 nM,"N#CCC1(n2cc(-c3ncnc4[nH]ccc34)cn2)CN(C2CCN(C(=O)Cc3ccccc3)CC2)C1 [Example 109, {1-[1-(phenylacetyl)piperidin-4-yl]-3-[4-(7H-pyrrolo[2,3-d]pyrimidin-4-yl)-1H-pyrazol-1-yl]azetidin-3-yl}acetonitrile]"
5 to 20 nM,3.2,10 to 50 nM,"N#CCC1(n2cc(-c3ncnc4[nH]ccc34)cn2)CN(C2CCN(C(=O)c3cnccn3)CC2)C1 [Example 14, {1-[1-(pyrazin-2-lcarbonyl)piperidin-4-yl]-3-[4-(7H-pyrrolo[2,3-d]pyrimidin-4-yl)-1H-pyrazol-1-yl]azetidin-3-l}acetonitrile]"
5 to 20 nM,5.3,10 to 50 nM,"N#CCC1(n2cc(-c3ncnc4[nH]ccc34)cn2)CN(C2CCN(C(=O)c3ccsc3)CC2)C1 [Example 15, {3-[4-(7H-pyrrolo[2,3-d]pyrimidin-4-yl)-1H-pyrazol-1-yl]-1-[1-(3-thienylcarbonyl)piperidin-4-yl]azetidin-3-yl}acetonitrile]"
≤ 5 nM,5.5,≤ 10 nM,"N#CCC1(n2cc(-c3ncnc4[nH]ccc34)cn2)CN(C2CCN(C(=O)c3ccc(Cl)s3)CC2)C1 [Example 77, {1-{1-[(5-chloro-2-thienyl)carbonyl]piperidin-4-yl}-3-[4-(7H-pyrrolo[2,3-d]pyrimidin-4-yl)-1H-pyrazol-1-yl]azetidin-3-yl}acetonitrile]"
≤ 5 nM,2.0,≤ 10 nM,"N#CCC1(n2cc(-c3ncnc4[nH]ccc34)cn2)CN(C2CCN(C(=O)Nc3ccc(C(F)(F)F)cc3)CC2)C1 [Example 167, 4-{3-(cyanomethyl)-3-[4-(7H-pyrrolo[2,3-d]pyrimidin-4-yl)-1H-pyrazol-1-yl]azetidin-1-yl}-N-[4-(trifluoromethyl)phenyl]piperidine-1-carboxamide]"
≤ 5 nM,6.5,10 to 50 nM,"N#CCC1(n2cc(-c3ncnc4[nH]ccc34)cn2)CN(C2CCN(C(=O)c3ccc(O)c(Cl)c3)CC2)C1 [Example 84, {1-[1-(3-chloro-4-hydroxybenzoyl)piperidin-4-yl]-3-[4-(7H-pyrrolo[2,3-d]pyrimidin-4-yl)-1H-pyrazol-1-yl]azetidin-3-yl}acetonitrile]"
5 to 20 nM,3.7,50 to 100 nM,"N#CCC1(n2cc(-c3ncnc4[nH]ccc34)cn2)CN(C2CCN(C(=O)C3CCC(C(F)(F)F)CC3)CC2)C1 (stereo not drawn) [Example 98, {3-[4-(7H-pyrrolo[2,3-d]pyrimidin-4-yl)-1H-pyrazol-1-yl]-1-(1-{[4-(trifluoromethyl)cyclohexyl]carbonyl}piperidin-4-yl)azetidin-3-yl]acetonitrile]"
≤ 5 nM,11.0,10 to 50 nM,"N#CCC1(n2cc(-c3ncnc4[nH]ccc34)cn2)CN(C2CCN(C(=O)c3cc(F)cc(F)c3)CC2)C1 [Example 3, {1-[1-(3,5-difluorobenzoyl)piperidin-4-yl]-3-[4-(7H-pyrrolo[2,3-d]pyrimidin-4-yl)-1H-pyrazol-1-yl]azetidin-3-yl}acetonitrile]"
≤ 5 nM,3.3,≤ 10 nM,"COc1cc(C(=O)N2CCC(N3CC(CC#N)(n4cc(-c5ncnc6[nH]ccc56)cn4)C3)CC2)ccc1F [Example 26, {1-[1-(4-fluoro-3-methoxybenzoyl)piperidin-4-yl]-3-[4-(7H-pyrrolo[2,3-d]pyrimidin-4-yl)-1H-pyrazol-1-yl]azetidin-3-yl}acetonitrile]"
20 to 30 nM,3.2,50 to 100 nM,"N#CCC1(n2cc(-c3ncnc4[nH]ccc34)cn2)CN(C2CCN(C(=O)Nc3nc(-c4ccc(Cl)cc4)cs3)CC2)C1 [Example 195, N-[4-(4-chlorophenyl)-1,3-thiazol-2-yl]-4-{3-(cyanomethyl)-3-[4-(7H-pyrrolo[2,3-d]pyrimidin-4-yl)-1H-pyrazol-1-yl]azetidin-1-yl}piperidine-1-carboxamide]"
5 to 20 nM,7.2,> 100 nM,"N#CCC1(n2cc(-c3ncnc4[nH]ccc34)cn2)CN(C2CCN(C(=O)C3CCC(c4ccc(Cl)cc4)CC3)CC2)C1 (stereo not drawn) [Example 105, {1-(1-{[4-(4-chlorophenyl)cyclohexyl]carbonyl}piperidin-4-yl)-3-[4-(7H-pyrrolo[2,3-d]pyrimidin-4-yl)-1H-pyrazol-1-yl]azetidin-3-yl}acetonitrile]"
